This passage reports PL_Result and activation results from PMC13083723 (Patterns, 2026).

Molecules are shown by their SMILES.

The first experiment relates to Vero-E6 cells. Nature of the experiment: cells. Type of experiment: cell-based.
Conditions: not given
`CCOc1ccccc1O[C@@H](c1ccccc1)[C@@H]1CNCCO1.CCOc1ccccc1O[C@H](c1ccccc1)[C@H]1CNCCO1` [SPE_A43974499] returned a PL_Result of 14.61.

Still in this experiment, the particulars now being: Chlorocebus sabaeus, Vero C1008, 24 h, read-out: PL_Result.
As for `CN1CCN(c2c(F)cc3c(=O)c(C(=O)O)cn4c3c2SCC4)CC1` [SPE_K62374253], the activation at 10 µM was -11.9%. Same read-out and setting: under `O=C(NCCN1CCN(c2ncccn2)CC1)C12CC3CC(CC(C3)C1)C2` [SPE_K67789209] stands -11.4%; under `CC(=O)Nc1cccc(-n2c(=O)n(C3CC3)c(=O)c3c(Nc4ccc(I)cc4F)n(C)c(=O)c(C)c32)c1` [SPE_K12343256], -1.89%. Consider `CC(C)COC(=O)c1ccc(N)cc1` [SPE_K96714749], for which the activation at 10 µM came to 1.09%.

For the molecule `CCS(=O)(=O)c1cccc(-c2cc(C(=O)NC3CCN(C)CC3)c(C)c3[nH]c4ncc(C)cc4c23)c1` [SPE_K01683783], the activation at 10 µM was -6.51%. For the molecule `COc1cc2ncn(-c3cc(OCc4ccccc4C(F)(F)F)c(C(N)=O)s3)c2cc1OC` [SPE_K90382497], the activation at 10 µM is -7.16%. In the case of `C[C@@H](c1ccc2nccn2c1)n1nnc2ncc(-c3cnn(C)c3)nc21` [SPE_K98028353], the activation at 10 µM was -4.44%.

As for `CCCc1c(-c2ccc(O)cc2)nn(-c2ccc(O)cc2)c1-c1ccc(O)cc1` [SPE_K00312224], the activation at 10 µM is 1.41%.

In the case of `COc1cc(N)c(Cl)cc1C(=O)NC1CN2CCC1CC2` (stereo not drawn) [SPE_A65615053], the activation at 10 µM is -14.1%. Still for that read-out and setting: under `CCCCCCCCCCCCCCCCCCCCCC(=O)Nc1ccn([C@@H]2O[C@H](CO)[C@@H](O)[C@@H]2O)c(=O)n1` [SPE_K32007074] stands -0.592%. Same read-out and setting: under `O=C(O)CCCNC(=O)c1cccnc1` [SPE_K56691760] stands 0.477%.

Consider `CCOCCn1c(C2CCN(CCc3ccc(C(C)(C)C(=O)O)cc3)CC2)nc2ccccc21` [SPE_K51937257], for which the activation at 10 µM was -5.44%.

Consider `O=C(O)c1cc(-c2ccc(F)cc2F)ccc1O` [SPE_K22031190], for which the activation at 10 µM was -7.97%. Take `C[C@@H](N)[C@@H](O)c1ccccc1` [SPE_K27853494]: the activation at 10 µM was -4.21%. Still for that read-out and setting: under `O=C(Nc1cccnc1)N1CCC(Cc2cccc(Oc3ccc(C(F)(F)F)cn3)c2)CC1` [SPE_K68997413] stands 1.53%; under `C[C@@H]1CN(Cc2ncccn2)C[C@H]1c1nc2c(cnn2C2CCOCC2)c(=O)[nH]1` [SPE_K50031829], -10.7%; under `Cc1cc(N2CCOCC2)ccc1Nc1nc(NC2CCCCC2)c2nc[nH]c2n1` [SPE_K45551181], -0.298%. The same measure, in the same setting: under `CC(=O)Nc1ccc(C(=O)O)cc1` [SPE_K47195926] stands 3.66%; under `CCCCCCCCCCCCCCCC(=O)OC(CC(=O)O)C[N+](C)(C)C` (stereo not drawn) [SPE_A77577770], 3.73%. The same measure, in the same setting: under `COc1ccc(Oc2c(Cl)cnn(C3c4ccccc4-c4ccccc43)c2=O)cc1` [SPE_K27732927] stands -5.19%; under `C=C(c1ccc(C(=O)O)cc1)c1cc2c(cc1C)C(C)(C)CCC2(C)C` [SPE_K92441787], -8.8%.

As for `CC1(C)S[C@@H]2[C@H](NC(=O)C(C(=O)O)c3ccsc3)C(=O)N2[C@H]1C(=O)O` (stereo partly drawn) [SPE_A55051145], the activation at 10 µM was -6.58%. Same read-out and setting: under `COc1cc2ncnc(Nc3cccc(Cl)c3F)c2cc1OC(=O)N1CCN(C)C[C@H]1C` [SPE_K41626799] stands -12.8%.

Turning to `CCN(c1ccccc1)c1cc(NC)[n+](C)c(C)n1` [SPE_K18678457], the activation at 10 µM was -5.38%. The same measure, in the same setting: under `CCC/C=C1\OC(=O)C2=C1CCC=C2` [SPE_K48875051] stands -12.3%; under `O=C(O)CCCCC(=O)O` [SPE_K10656395], 4.52%.

Regarding `COC(=O)Nc1ccc(-c2nc(N3CCOCC3)c3cnn(C4CCN(Cc5cccnc5)CC4)c3n2)cc1` [SPE_K49900195], the activation at 10 µM is 1.79%. As to `CC(C)=CCC[C@](C)(O[C@@H]1O[C@H](CO)[C@@H](O)[C@H](O)[C@H]1O)[C@H]1CC[C@]2(C)[C@@H]1[C@H](O)C[C@@H]1[C@@]3(C)CC[C@H](O)C(C)(C)[C@@H]3CC[C@]12C` [SPE_K01942833], the activation at 10 µM is -8.36%. On the same count and under the same terms, under `Cc1cc2c(cc1C(F)(F)F)N(C(=O)Nc1ccc(Oc3cccnc3C)nc1)CC2` [SPE_K99968849] stands 3.28%. `COc1cc2ncnc(Nc3ccc(F)c(Cl)c3)c2cc1OCCCN1CCOCC1` [SPE_K64052750]: the activation at 10 µM is -10.1%. On the same count and under the same terms, under `CN(CC[C@@H](Oc1ccc(-c2ccccc2)cc1)c1ccc(F)cc1)CC(=O)O` [SPE_K53979406] stands -9.75%.

Turning to `CC[n+]1c(-c2ccccc2)c2cc(N)ccc2c2ccc(N)cc21` [SPE_K28354016], the activation at 10 µM stood at 9.76%. Consider `CNC(=O)c1ccccc1Nc1nc(Nc2ccc(N3CCOCC3)cc2OC)ncc1Cl` [SPE_K21025364], for which the activation at 10 µM came out at 15.8%.

Consider `CCN(CCNC(=O)Nc1ccccc1Br)c1cccc(C)c1` [SPE_K03665769], for which the activation at 10 µM was -3.7%. The same measure, in the same setting: under `CCN1C(=O)NC(c2ccccc2)C1=O` (stereo not drawn) [SPE_A30205217] stands -4.7%; under `Cc1cccc(C)c1NC(=O)CN1CCN(CCCC(c2ccc(F)cc2)c2ccc(F)cc2)CC1` [SPE_K62996583], 90.9%; under `COc1ccc(-n2c(C)c([N+](=O)[O-])c3ccc(O)cc32)cc1` [SPE_K39166528], -10.4%. For the molecule `CCCCc1ccc2[nH]c(NC(=O)OC)nc2c1` [SPE_K02407574], the activation at 10 µM is -11.6%.

`C[C@H](CCC(=O)O)[C@H]1CC[C@H]2[C@@H]3C[C@H](O)[C@@H]4C[C@H](O)CC[C@]4(C)[C@H]3CC[C@]12C` [SPE_K49031386]: the activation at 10 µM was -3.75%. Take `CCN1CCC(n2cc(CNc3cc(Cl)c4ncc(C#N)c(Nc5ccc(F)c(Cl)c5)c4c3)nn2)CC1` [SPE_K49468759]: the activation at 10 µM worked out at 33.2%. Same read-out and setting: under `COc1cccc([C@H](O)C2CCN(CCc3ccc(F)cc3)CC2)c1OC` [SPE_K23647661] stands -9.45%; under `Cc1cc(OCc2nnc(SC3CCCC3)n2-c2cccnc2)ccc1-c1ccc(S(C)(=O)=O)cc1` [SPE_K26253904], -0.282%. As for `CCCc1nc(C)c2c(=O)[nH]c(-c3cc(S(=O)(=O)N4CCN(CC)CC4)ccc3OCC)nn12` [SPE_K13926615], the activation at 10 µM worked out at 1%. For the molecule `Nc1nc(OCc2ccccc2)c2nc[nH]c2n1` [SPE_K92041145], the activation at 10 µM was -3.41%. As to `O=C1N[C@@H]2[C@@H](O)[C@@H](O)[C@H](O)[C@@H](CO)N2C1=O` [SPE_K02898090], the activation at 10 µM was determined as 7%. Same read-out and setting: under `CCCC(CCC)C(=O)NCc1ccc2c(cnn2-c2ccccc2OC)c1` [SPE_K51265828] stands 1.45%; under `COc1ccccc1N1CCN(CCN2C(=O)c3ccccc3C(C)(C)C2=O)CC1` [SPE_K93188295], -15%; under `CS(=O)(=O)c1ccc(-c2cnc(NCc3ccco3)n3cnnc23)cc1` [SPE_K19002914], 5.68%.

Consider `O=[N+]([O-])c1cncn1CCN1CCOCC1` [SPE_K79145628], for which the activation at 10 µM is -10.4%. Still for that read-out and setting: under `CNCC(=O)O` [SPE_K51263939] stands -0.786%; under `Cc1cccc(-c2n[nH]cc2-c2ccc3ncccc3n2)n1` [SPE_K80480517], 0.32%.

Consider `COc1ccc2c(c1)nc([S+]([O-])Cc1ncc(C)c(OC)c1C)[n]2[Mg][n]1c([S+]([O-])Cc2ncc(C)c(OC)c2C)nc2cc(OC)ccc21` (stereo not drawn) [SPE_A56892734], for which the activation at 10 µM is -9.5%. Still for that read-out and setting: under `CCN(CC)CC1CCCCN1CC(=O)N1c2ccccc2C(=O)Nc2cccnc21` (stereo not drawn) [SPE_A00520476] stands -3.51%; under `CC(C)[N+](C)(CCOC(=O)C1c2ccccc2Oc2ccccc21)C(C)C` [SPE_K90885812], -7.34%; under `O=C1NC(O)CCN1[C@@H]1O[C@H](CO)[C@@H](O)[C@H]1O` (stereo partly drawn) [SPE_A86248581], -8.11%.

For the molecule `CCCCCCCCCCCCOS(=O)(=O)O` [SPE_K05680146], the activation at 10 µM came out at 12.1%.

As to `CCc1c(C(=O)C(N)=O)c2c(OCC(=O)O)cccc2n1Cc1ccccc1` [SPE_K09711437], the activation at 10 µM was -15.1%. As for `CCN(CC)CCN(Cc1ccc(-c2ccc(C(F)(F)F)cc2)cc1)C(=O)Cn1c(SCc2ccc(F)cc2)nc(=O)c2c1CCC2` [SPE_K19085898], the activation at 10 µM was -5.09%. On the same count and under the same terms, under `CC(=O)O[C@]1(C(C)=O)CC[C@H]2[C@@H]3CCC4=CC(=O)CCC4=C3[C@@H](c3ccc(N(C)C)cc3)C[C@@]21C` [SPE_K76197012] stands -4.74%; under `O=[N+]([O-])O[C@@H]1CO[C@H]2[C@@H]1OC[C@@H]2O` [SPE_K82225283], -18.1%. The same measure, in the same setting: under `COc1cc2c(cc1OC)C(c1ccc(N)cc1)=NNC(=O)C2` [SPE_K42859542] stands 0.928%; under `NC(=O)C[C@H](N)C(=O)O` [SPE_K06665116], -6.33%; under `OCc1cc([C@@H](O)CNCCCCCCOCCOCc2c(Cl)cccc2Cl)ccc1O` [SPE_M36487418], 28.8%. In the case of `CCCCCCCCCCCCCCCCO` [SPE_K37203094], the activation at 10 µM is 1.52%. As for `CC(=O)c1ccc2c(c1)N(CCCN1CCN(CCO)CC1)c1ccccc1S2` [SPE_K42938903], the activation at 10 µM amounted to 52.6%. Same read-out and setting: under `O=C(Cc1ccc(-c2ccc(OCCN3CCOCC3)cc2)cn1)NCc1ccccc1` [SPE_K29968218] stands -4.21%. Turning to `Cc1cc(C)nc(NS(=O)(=O)c2ccc(NC(=S)NC(=O)COc3ccc(Br)cc3Cl)cc2)n1` [SPE_K22829793], the activation at 10 µM was -2.21%. As for `O=C(NC(=O)c1c(F)cccc1Cl)NC1c2ccccc2-c2ccccc21` [SPE_K24527118], the activation at 10 µM was -7.81%. The same measure, in the same setting: under `COc1nccc(-c2c(-c3ccc(F)cc3)ncn2C2CCNCC2)n1` [SPE_K19412355] stands 14.6%; under `OC[C@H]1O[C@@H](c2ccc(Cl)c(Cc3ccc(O[C@H]4CCOC4)cc3)c2)[C@H](O)[C@@H](O)[C@@H]1O` [SPE_K53765467], -10%; under `Cn1cc(C2=C(c3cn(C4CCN(Cc5ccccn5)CC4)c4ccccc34)C(=O)NC2=O)c2ccccc21` [SPE_K79404599], -2.44%.
